This assay relates to anti-chitosan polyclonal antibody (CTSpAb). The assay can be described thus: Competitive ELISA with 3-mer to 6-mer CTS oligosaccharide as competitive substance. The conditions noted are these: CTSpAb diluted 8,000-fold. In kind it is binding, fowl. As to the method:
The Molecular Size of CTS which can be assayed by CTSpAb was determined through a competitive ELISA employing a 3-mer to 6-mer CTS oligosaccharide (product of Seikagaku Corporation) as a competitive substance.
To CTS, 1% (v/v) acetic acid was added so as to adjust the concentration to 2 μg/mL. The thus-prepared solution was added to a plate at 50 μL/well, and the plate was allowed to stand overnight at 4° C. The plate was washed twice with 9.57 mM PBS (pH: 7.5) at 300 μL/well, and then 25% BA/9.57 mM PBS (pH: 7.5) was added thereto at 200 μL/well. The plate was allowed to stand for 1 hour, to thereby fabricate CTS-immobilized plate. The plate was washed repeatedly four times with PBS-T at 300 μL/well. To the plate, a solution prepared by adding 10% BA/PBS-T to the CTS oligosaccharide so as to adjust the concentration to 0.00064 to 10 μg/mL, or 10% BA/PBS-T (CTS oligosaccharide-free) was added to the plate at 100 μL/well. Then, CTSpAb diluted 8,000-fold with 10% BA/PBS-T was added to the plate at 100 μL/well, and the plate was allowed to stand for 1 hour. The plate was washed repeatedly four times with PBS-T at 300 μL/well. Subsequently, a product of peroxidase-labeled anti-fowl IgY (IgG) (H+L) antibody 5,000-fold diluted with 10% BA/PBS-T was added to the plate at 100 μL/well, and the plate was allowed to stand for 1 hour. The plate was washed repeatedly four times with PBS-T at 300 μL/well, and then, TMB reagent was added to the plate at 100 μL/well, and the plate was allowed to stand for 30 minutes. Then, 1 N HCl was added to the plate at 100 μL/well. The absorbance of each well of the plate was measured by means of a well reader MP-96 at a measurement wavelength of 450 nm and a reference wavelength of 630 nm.
As is clear from Table 3, binding of CTSpAb to CTS on the plate was inhibited by 3- to 6-mer CTS oligosaccharide.
On the technique in general: In an ELISA, binding on a coated surface is turned into a signal by an enzyme label.

Setting [1] is: CTS oligosaccharide 0.00064 μg/mL.
[2] abbreviates: CTS oligosaccharide 0.0032 μg/mL.
The mark [3] stands for this setting: CTS oligosaccharide 0.016 μg/mL.

Consider `N[C@H]1[C@H](O[C@H]2[C@H](O)[C@@H](N)[C@H](O[C@H]3[C@H](O)[C@@H](N)[C@H](O[C@H]4[C@H](O)[C@@H](N)[C@H](O[C@H]5[C@H](O)[C@@H](N)[C@H](O[C@H]6[C@H](O)[C@@H](N)C(O)O[C@@H]6CO)O[C@@H]5CO)O[C@@H]4CO)O[C@@H]3CO)O[C@@H]2CO)O[C@H](CO)[C@@H](O)[C@@H]1O` (stereo partly drawn) [6-mer, chitosan hexamer], for which the % Inhibition (in general, the percentage by which the read-out fell short of the control) under setting [1] is reported as 25%; the “% Inhibition” value under setting [2] turned out to be 39%; the “% Inhibition” value under setting [3] is listed as 51%; the “% Inhibition” value (CTS oligosaccharide 0.08 μg/mL) is recorded as 63%; the “% Inhibition” value (CTS oligosaccharide 0.4 μg/mL) came out at 66%; the “% Inhibition” value (CTS oligosaccharide 2 μg/mL) came out at 68%. Further, the “% Inhibition” value (CTS oligosaccharide 10 μg/mL) is 68%.
As to `N[C@H]1[C@H](O[C@H]2[C@H](O)[C@@H](N)[C@H](O[C@H]3[C@H](O)[C@@H](N)C(O)O[C@@H]3CO)O[C@@H]2CO)O[C@H](CO)[C@@H](O)[C@@H]1O` (stereo partly drawn) [3-mer], the “% Inhibition” value reads like this: under setting [1], 6%; under setting [2], 9%; under setting [3], 11%; (CTS oligosaccharide 0.08 μg/mL) 16%; (CTS oligosaccharide 0.4 μg/mL) 24%; (CTS oligosaccharide 2 μg/mL) 32%. The “% Inhibition” value (CTS oligosaccharide 10 μg/mL) is 44%.
Take `N[C@H]1[C@H](O[C@H]2[C@H](O)[C@@H](N)[C@H](O[C@H]3[C@H](O)[C@@H](N)[C@H](O[C@H]4[C@H](O)[C@@H](N)[C@H](O[C@H]5[C@H](O)[C@@H](N)C(O)O[C@@H]5CO)O[C@@H]4CO)O[C@@H]3CO)O[C@@H]2CO)O[C@H](CO)[C@@H](O)[C@@H]1O` (stereo partly drawn) [5-mer]: the “% Inhibition” value runs as follows: under setting [1], 28%; under setting [2], 42%; under setting [3], 55%; (CTS oligosaccharide 0.08 μg/mL) 65%; (CTS oligosaccharide 0.4 μg/mL) 69%; (CTS oligosaccharide 2 μg/mL) 70%. The “% Inhibition” value (CTS oligosaccharide 10 μg/mL) is 70%.
